In US8110555B2, “7-hydroxy chromones as potent antioxidants” (Unigen, Inc., priority 2002, dated 2012):

How the values were obtained:
tyrosinase = settings: cited from earlier work; for type of tyrosinase inhibition (Lineweaver Burk diagram): Yagi et al. (1987)
[1] = system: oxygen radical damage of β-phycoerythrin (β-PE) indicator protein; test: ORAC of a meta-berry fruit drink product with added aloeresin A; type: biochemical; settings: aloeresin A at a concentration of 5%; FIG. 7
Protocol: A fruit drink product obtained from Oasis Wellness Network was determined, using the methods described in Example 3, to have an ORAC value of 3,129/oz. Aloeresin A, containing 76.0% aloeresin A was added to 40 mL of the drink (lot #0612, exp. […] These samples were then tested for whole ORAC value relative to the product in the absence of aloeresin A. using the experiment procedures illustrated described by Cao et al. (1994) Free Radic. Biol. Med. 16:135-137 and Prior and Cao (1999) Proc. Soc. Exp. Biol. Med. 220:255-261).

[2] = system: oxygen radical damage of β-phycoerythrin (β-PE) indicator protein; test: Oxygen Radical Absorption Capacity (ORAC) assay, whole ORAC; type: biochemical; settings: FIG. 4
Excerpt: The Oxygen Radical Absorption Capacity (ORAC) assay is a method for measuring total serum antioxidant activity. (Cao et al. (1993) Free Rad. Biol. Med. 14:303-311). It can be used to quantitatively measure the total antioxidant capacity, as well as, qualitatively measure the levels of fast versus slow acting antioxidants in a blood serum sample. The assay utilizes the free radical sensitive fluorescent indicator protein β-phycoerythrin (β-PE) to monitor the effectiveness of various serum antioxidants in protecting β-PE from becoming damaged by free radicals. Assay results are quantitated by allowing the reaction to reach completion and then integrating the area under the kinetic curve relative to a blank reaction containing no antioxidant. The area under the curve is proportional to the concentration of all the antioxidants present in the sample. (DeLang and Glazer (1989) Analyt. Biochem. 177:300-306).
The chromones, Aloesin and Aloeresin A, were tested for Oxygen Radical Absorption Capacity (ORAC) relative to green tea extract which contains more than 50% total catechins and more than 25% epigallocatechingallate (EGCG) and grape seed extract which contains more than 95% total phenols. The ORAC assay measures the time-dependent decrease in the fluorescence of β-phycoerythrin (β-PE) indicator protein, resulting from oxygen radical damage. This assay provides a quantitative measure of the total antioxidant capacity to protect the free radical sensitive β-phycoerythrin. Each reaction was calibrated using the known standard Trolox, a water soluble vitamin E analogue. The ORAC value refers to the net protection area under the quenching curve of β-phycoerythrin in the presence of an antioxidant. The results of the assay are reported on the basis of 1 ORAC unit equals 1 μM of Trolox. Aloeresin A (purity 76.0%), aloesin (95.2%), green tea extract and grape seed extract were dissolved in deionized water (5% solution W/V) and tested directly using the experimental procedures described in Cao et al. (1994) Free Radic. Biol. Med. 16:135-137 and Prior and Cao (1999) Proc. Soc. […]

[3] = system: spontaneous lipid peroxidation reaction; test: Lipid Peroxidation Inhibition Capacity (LPIC) assay, MDA by thiobarbituric acid reaction; type: biochemical; settings: for inhibition of lipid peroxidation: concentration 5 mg/mL in phosphate-saline buffer
Excerpt: The Lipid Peroxidation Inhibition Capacity (LPIC) assay is a method for measuring the ability of a sample to inhibit the initiation and propagation of a spontaneous lipid peroxidation reaction. Lipid peroxidation represents the major mechanism of lipid destruction occurring in an organism. This reaction is also an important source of reactive oxygen species. In part, lipid peroxidation is controlled in vivo by:
Lipid Peroxidation Inhibition Capacity (LPIC) is a measure of the anti-oxidative ability of a sample to inhibit the initiation and propagation of a spontaneous lipid peroxidation reaction. Malonyldialdehyde (MDA) is one of the major by-products of lipid peroxidation and is commonly used as a means of measuring the extent of lipid peroxidation. MDA concentrations were measured using the thiobarbituric acid reaction. Aloeresin A (purity 76.0%), vitamin C and cc-tocopherol were dissolved in a phosphate-saline buffer at four different concentrations (5 mg/mL, 10 mg/mL, 25 mg/mL and 50 mg/mL) and then tested directly using the experiment procedures described by Stocks et al. (1974) Clinical Sci. Mol. 47:215-222 and Yu and Lee, U.S. Pat. No. 5,939,395.

[4] = system: oxygen radical damage of β-phycoerythrin (β-PE) indicator protein; test: Fast and slow Oxygen Radical Absorption Capacity (ORAC); type: biochemical; settings: for slow antioxidant activity, comparison in words: slow ORAC (50% of β-phycoerythrin survives)
Excerpt: Ascorbic acid, free phenolic compounds and thiol compounds are fast acting antioxidants. The slow antioxidant activity is a measure of the net protection area under the quenching curve of β-phycoerythrin in the presence of an antioxidant, which inhibits free radical propagation to the extent that 50% of β-phycoerythrin survives. Flavonoids, carotenoids and polyphenols are slow acting antioxidants. Aloeresin A (purity 76.0%), Aloesin (95.2%), green tea extract and grape seed extract, respectively were dissolved in deionized water (5% (W/V) solution) and tested directly using the experiment procedures described by Cao et al. (1994) Free Radic. Biol. Med. 16:135-137 and Prior and Cao (1999) Proc. Soc. Exp. Biol. Med. 220:255-261.

In the case of COc1cc(/C=C/C(=O)O[C@@H]2[C@@H](O)[C@H](O)[C@@H](CO)O[C@H]2c2c(O)cc(C)c3c(=O)cc(CC(C)=O)oc23)ccc1O [2″-feruloylaloesin, 2″-O-feruloylaloesin, reference compound], the “type of tyrosinase inhibition (Lineweaver Burk diagram)” value (tyrosinase) is listed as “non-competitive inhibitor”.
With CC(=O)Cc1cc(=O)c2c(C)cc(O)c([C@@H]3O[C@H](CO)[C@@H](O)[C@H](O)[C@H]3OC(=O)/C=C/c3ccc(O)cc3)c2o1 [aloeresin A] the “increase of ORAC value of a multiple berry fruit drink” value [1] was 31.3%, the “whole ORAC value higher than grape seed extract” value ([2]; 5% (W/V) solution, difference to grape seed extract) was 299 and the “whole ORAC value higher than green tea extract” value ([2]; 5% (W/V) solution, difference to green tea extract) was 33. For the same compound, the “inhibition of lipid peroxidation” value [3] was 30.7%, the “lipid peroxidation inhibition capacity (LPIC), comparison in words” value ([3]; concentrations of 10 mg/mL to 50 mg/mL, vs α-tocopherol and vitamin C, FIG. 6) was “stronger antioxidant than either α-tocopherol or vitamin C” and the “fast antioxidant potency relative to the other three compositions” value ([4]; fast ORAC (95% of β-phycoerythrin survives), 5% (W/V) solution, FIG. 5) was “four times more potent as a fast antioxidant”. The “slow antioxidant activity, comparison in words” value ([4]; 5% (W/V) solution, FIG. 5) was “superior antioxidant relative to grape seed and green tea extracts”.
In the case of CC(=O)Cc1cc(=O)c2c(C)cc(O)c([C@@H]3O[C@H](CO)[C@@H](O)[C@H](O)[C@H]3O)c2o1 [aloesin], the “type of tyrosinase inhibition (Lineweaver Burk diagram)” value (tyrosinase) is listed as “competitive inhibitor”, the IC50 (tyrosinase; substrate L-DOPA, read-out: concentration for 50% inhibition of tyrosinase activity) is listed as 200 µM and the “whole ORAC value, comparison in words” value ([2]; 5% (W/V) solution in deionized water, vs aloeresin A, green tea and grape seed extracts) is listed as “much higher whole ORAC value than aloeresin A and the standardized green tea and grape seed extracts”. For the same compound, the “more active than grape seed extract at 50% ORAC conditions” value ([4]; 50% ORAC conditions, relative to grape seed extract) was “more than six times more active”, the “more active than green tea extract at 50% ORAC conditions” value ([4]; 50% ORAC conditions, relative to green tea extract) was “over 70%” and the “slow antioxidant activity, comparison in words” value ([4]; 5% (W/V) solution, FIG. 5) was “more potent as a slow acting antioxidant”.
For Cc1c(C)c2c(c(C)c1O)CC[C@@](C)(CCC[C@H](C)CCC[C@H](C)CCCC(C)C)O2 [α-tocopherol, reference compound], the “inhibition of lipid peroxidation” value [3] was “below 10%”.
